The test addresses Potassium voltage-gated channel subfamily KQT member 2 (Rattus norvegicus) (UniProt O88943). Description: PubChem AID 1407. The note with it: KCNQ2-expressing cells, rubidium efflux, at 10 µM, stronger effect = higher value.

Potassium voltage-gated channel subfamily KQT member 2 (Rattus norvegicus), sequence (O88943 whole entry, looked up): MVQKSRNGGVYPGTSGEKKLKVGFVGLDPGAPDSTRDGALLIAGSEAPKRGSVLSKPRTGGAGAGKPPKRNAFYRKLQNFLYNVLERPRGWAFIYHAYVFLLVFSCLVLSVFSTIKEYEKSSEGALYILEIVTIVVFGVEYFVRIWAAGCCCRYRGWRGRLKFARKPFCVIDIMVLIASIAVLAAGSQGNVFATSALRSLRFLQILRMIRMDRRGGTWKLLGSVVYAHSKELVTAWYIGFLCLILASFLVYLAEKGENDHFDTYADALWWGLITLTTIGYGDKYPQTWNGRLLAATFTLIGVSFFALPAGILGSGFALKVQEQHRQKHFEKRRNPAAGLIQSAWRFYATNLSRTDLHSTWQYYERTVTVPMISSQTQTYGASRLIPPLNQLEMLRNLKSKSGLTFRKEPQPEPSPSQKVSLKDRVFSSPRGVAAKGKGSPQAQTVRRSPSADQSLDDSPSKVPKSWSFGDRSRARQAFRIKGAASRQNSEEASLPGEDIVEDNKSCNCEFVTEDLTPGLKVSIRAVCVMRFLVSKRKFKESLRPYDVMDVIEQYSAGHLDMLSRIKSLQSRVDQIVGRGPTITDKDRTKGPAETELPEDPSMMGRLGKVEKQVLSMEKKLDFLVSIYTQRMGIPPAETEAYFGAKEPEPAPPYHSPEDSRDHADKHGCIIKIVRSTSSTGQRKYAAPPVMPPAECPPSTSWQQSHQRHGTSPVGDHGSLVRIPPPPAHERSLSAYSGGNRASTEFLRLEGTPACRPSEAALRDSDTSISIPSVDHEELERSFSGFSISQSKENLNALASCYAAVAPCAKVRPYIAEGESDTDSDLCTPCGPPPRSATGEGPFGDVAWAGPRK

For `O[N+]1=CC=CCC1=S.On1ccccc1=S.[Zn]`, the activity increase was 23.1%. Also, the efflux (measured here: rubidium efflux percent) came to 85.5%.

(Values after PubChem BioAssay AID1407 (Johns Hopkins Ion Channel Center, 2008).)
